In US9414591B2, “Chitooligosaccharides and methods for use in enhancing corn growth” (NOVOZYMES BIOAG A/S, priority 2011, dated 2016):

Key:
Assay type in all cases: in vivo
[1] = tested on: Hybrid corn seeds (92L90); assay: Greenhouse corn seed treatment, plant dry weight (Example 1); details: seed treatment solution 10^-8 M
Description: Two seed treatment experiments using only Pea LCO, Pea CO and the CO mixtures obtained from chitosan by enzymatic process (structurally distinct from the Pea CO, and also referred to in the examples as the “China CO”) were performed in greenhouse. Hybrid corn seeds (92L90, Peterson Farm, USA) were treated with treatment solution (10^-8 M) at the rate of 3 fl oz/100 lbs of seed. Seeds were planted in plastic pots containing 1:1 Sand:Perlite mixture. Seeds were allowed to grow for about 3-4 weeks and then they were harvested and their dry weight measured.

Corn seeds [2] = assay: Corn seed germination in petriplates (Example 2); details: 5 days after plating
Description: Corn seeds were plated in petriplates containing 5 ml of treatment solution on a filter paper. Corn seeds were placed on moist filter paper for germination. Similarly, wheat seeds (spring wheat) were placed in petriplates. […] Roots were harvested and their length measured by WinRhizo system.

Corn seeds [3] = assay: Greenhouse corn seed application, seedling dry weight (Example 3); details: alone at 10^−8 M; harvested 10 days after planting (FIG. 9)
Description: Corn seeds were treated with various combinations of Pea CO (10^-8 M) and Pea LCO (10-8, 10^-9 M). Seeds were planted in greenhouse plastic pots containing 1:1 sand:perlite mixture. Seedlings were harvested 10 days after planting, washed clean and then dried in an oven at 60 C for 48 hr.

corn foliage = assay: Field trials, grain yield when applied to corn foliage (Example 4)
corn seed = assay: Field trials, grain yield when applied to corn seed before planting (Example 5)
[4] = seed treatment, CO compared to LCO, less

CC(=O)NC1C(O)OC(CO)C(OC2OC(CO)C(OC3OC(CO)C(OC4OC(CO)C(OC5OC(CO)C(O)C(O)C5N)C(O)C4NC(C)=O)C(O)C3NC(C)=O)C(O)C2NC(C)=O)C1O (stereo not shown) [CO (CO-V)]
shoot, root and total biomass / plant dry weight compared to LCO ([1]; both experiments): greater shoot, root and total biomass increase over non-inventive and comparable LCO
dry weight increase over LCO ([1]; first trial (FIG. 5), 3 fl oz/100 lbs of seed, harvested after about 3-4 weeks): 11.84%
dry weight-increase over LCO ([1]; second trial (FIG. 6), 3 fl oz/100 lbs of seed, harvested after about 3-4 weeks): 12.63%
seed germination (Corn seeds [2]; 5 ml treatment solution on filter paper, vs control (FIG. 7)): increased germination
seedling root length (Corn seeds [2]; WinRhizo system, vs control): significantly increased seedling root length over control
corn seedling dry weight (Corn seeds [3]): increased corn seedling dry weight
yield enhancement as a foliar treatment (corn foliage): performed at least twice better than the LCO
CO mean yield better than foliar LCO response (corn foliage; CO compared to LCO): 5.0 bu/A
YIELD, Response Increase (% of Control) (corn foliage; foliar): 4.8 % of Control
YIELD, Mean (N = 16) (corn foliage; foliar, 4 ounces per acre with glyphosate herbicide, 16 field trials): 201.8 bu/A
higher yield increase than LCO (corn foliage; foliar, CO compared to LCO): 2.6%
trials with a positive response, better than LCO (corn foliage; foliar, CO compared to LCO): 18.8%
Positive Yield Response (%) (corn foliage; foliar, share of the 16 trials with positive yield enhancement): 93.8%
YIELD, Response (bu/A) (corn foliage; foliar, versus Control (water)): 9.2 bu/A
YIELD, Response Increase (% of Control) (corn seed; seed treatment): 3.6 % of Control
yield enhancement when applied to corn seed (corn seed; seed treatment): provided yield enhancement above the Control
YIELD, Mean (N = 10) (corn seed; seed treatment 1×10-8 molar, 1 μg/acre, 3 fluid ounces per 50 pounds of seed, 10 field trials): 188.0 bu/A
CO mean yield less than LCO (corn seed; [4]): 4.6 bu/A
less positive yield responses than LCO (corn seed; [4]): 10.0%
less yield increase above the Control than LCO (corn seed; [4]): 2.5%
Positive Yield Response (%) (corn seed; seed treatment, share of the 10 trials with positive yield enhancement): 80.0%
YIELD, Response (bu/A) (corn seed; seed treatment, versus Control (water)): 6.5 bu/A
